Assay results taken from PMC5218480 (PLoS ONE, 2017).

System: MV-4-11 cells
Experiment: Gene expression microarray analysis (Affymetrix PrimeView) and GSEA
Format: cell-based, human
Design: RFU PODN (11730768_x_at) / Fold change /veh PODN (11730768_x_at) / RFU LINC00158 (11744669_a_at) / Fold change /veh LINC00158 (11744669_a_at) / RFU DUSP10 (11751237_a_at) / Fold change /veh DUSP10 (11751237_a_at) / RFU ID3 (11757404_x_at) / Fold change /veh ID3 (11757404_x_at) / RFU PLEKHG5 (11737974_s_at) / Fold change /veh PLEKHG5 (11737974_s_at) / RFU LRRC4B (11730491_at) / Fold change /veh LRRC4B (11730491_at) / RFU GIMAP4 (11747438_a_at) / Fold change /veh GIMAP4 (11747438_a_at) / RFU KRT8 (11758183_x_at) / Fold change /veh KRT8 (11758183_x_at) / RFU CNN1 (11734310_a_at) / Fold change /veh CNN1 (11734310_a_at) / RFU VPS37D (11726825_at) / Fold change /veh VPS37D (11726825_at) / RFU C10orf10 (11716522_x_at) / Fold change /veh C10orf10 (11716522_x_at) / RFU KIR2DL2 /// KIR2DL4 /// KIR2DL5A /// KIR2DL5B /// KIR2DS1 /// KIR2DS2 /// KIR2DS3 /// KIR2DS4 /// KIR3DL3 /// KIR3DL3 /// KIR3DS1 (11738374_at) / Fold change /veh KIR2DL2 /// KIR2DL4 /// KIR2DL5A /// KIR2DL5B /// KIR2DS1 /// KIR2DS2 /// KIR2DS3 /// KIR2DS4 /// KIR3DL3 /// KIR3DL3 /// KIR3DS1 (11738374_at) / RFU C1QL1 (11718748_at) / Fold change /veh C1QL1 (11718748_at) / RFU TMPRSS4 (11747572_a_at) / Fold change /veh TMPRSS4 (11747572_a_at) / RFU HAMP (11756126_x_at) / Fold change /veh HAMP (11756126_x_at) / RFU RNFT2 (11725882_a_at) / Fold change /veh RNFT2 (11725882_a_at) / RFU NR4A2 (11747474_a_at) / Fold change /veh NR4A2 (11747474_a_at) / RFU ABCC12 (11746883_a_at) / Fold change /veh ABCC12 (11746883_a_at) / RFU TMEM136 (11760407_x_at) / Fold change /veh TMEM136 (11760407_x_at) / RFU CLDN22 /// WWC2 (11732394_at) / Fold change /veh CLDN22 /// WWC2 (11732394_at) / RFU HLA-DPB1 (11760878_x_at) / Fold change /veh HLA-DPB1 (11760878_x_at) / RFU SPINT1 (11716480_a_at) / Fold change /veh SPINT1 (11716480_a_at) / RFU GAP43 (11754022_s_at) / Fold change /veh GAP43 (11754022_s_at) / RFU A4GNT (11735810_at) / Fold change /veh A4GNT (11735810_at) / RFU PRB3 (11715151_x_at) / Fold change /veh PRB3 (11715151_x_at) / RFU TUBB4B (11761932_at) / Fold change /veh TUBB4B (11761932_at) / RFU CAPN14 (11732068_a_at) / Fold change /veh CAPN14 (11732068_a_at) / RFU TMCC2 (11721928_a_at) / Fold change /veh TMCC2 (11721928_a_at) / RFU IRGQ (11745062_a_at) / Fold change /veh IRGQ (11745062_a_at) / RFU FAM174B (11720279_a_at) / Fold change /veh FAM174B (11720279_a_at) / RFU TMPRSS4 (11748680_a_at) / Fold change /veh TMPRSS4 (11748680_a_at) / RFU FAM212B (11763350_a_at) / Fold change /veh FAM212B (11763350_a_at) / RFU PLEKHG5 (11743358_a_at) / Fold change /veh PLEKHG5 (11743358_a_at) / RFU ZSCAN30 (11745921_a_at) / Fold change /veh ZSCAN30 (11745921_a_at) / RFU CMKLR1 (11741424_a_at) / Fold change /veh CMKLR1 (11741424_a_at) / RFU LOC101060620 /// MAPK8IP1 (11723275_at) / Fold change /veh LOC101060620 /// MAPK8IP1 (11723275_at) / RFU SPTSSB (11747773_x_at) / Fold change /veh SPTSSB (11747773_x_at) / RFU PRSS12 (11739890_at) / Fold change /veh PRSS12 (11739890_at) / RFU BIN1 (11741810_x_at) / Fold change /veh BIN1 (11741810_x_at) / RFU WNT11 (11732464_a_at) / Fold change /veh WNT11 (11732464_a_at) / RFU C10orf10 (11716521_a_at) / Fold change /veh C10orf10 (11716521_a_at) / RFU C5orf56 (11738089_at) / Fold change /veh C5orf56 (11738089_at) / RFU CYB561 (11721691_x_at) / Fold change /veh CYB561 (11721691_x_at) / RFU ANKRD19P (11752326_a_at) / Fold change /veh ANKRD19P (11752326_a_at) / RFU OR2T12 /// OR2T33 /// OR2T8 (11738714_s_at) / Fold change /veh OR2T12 /// OR2T33 /// OR2T8 (11738714_s_at) / RFU VCAN (11748164_a_at) / Fold change /veh VCAN (11748164_a_at) / RFU JSRP1 (11732532_at) / Fold change /veh JSRP1 (11732532_at) / RFU KRTAP10-11 (11738290_x_at) / Fold change /veh KRTAP10-11 (11738290_x_at) / RFU MYO3A (11730013_a_at) / Fold change /veh MYO3A (11730013_a_at) / RFU EBF3 (11725865_a_at) / Fold change /veh EBF3 (11725865_a_at) / RFU CAMK2N1 (11719241_x_at) / Fold change /veh CAMK2N1 (11719241_x_at) / RFU C5orf56 (11738088_a_at) / Fold change /veh C5orf56 (11738088_a_at) / RFU OLFML3 (11715873_a_at) / Fold change /veh OLFML3 (11715873_a_at) / RFU LOC100653217 /// NTM (11731650_a_at) / Fold change /veh LOC100653217 /// NTM (11731650_a_at) / RFU MAPK11 (11762145_a_at) / Fold change /veh MAPK11 (11762145_a_at) / RFU FIZ1 (11724087_x_at) / Fold change /veh FIZ1 (11724087_x_at) / RFU OASL (11726364_x_at) / Fold change /veh OASL (11726364_x_at) / RFU SOX15 (11748057_x_at) / Fold change /veh SOX15 (11748057_x_at) / RFU CD79A (11719716_a_at) / Fold change /veh CD79A (11719716_a_at) / RFU HIST1H1D (11736915_at) / Fold change /veh HIST1H1D (11736915_at) / RFU CASKIN2 (11723855_a_at) / Fold change /veh CASKIN2 (11723855_a_at) / RFU LOC730098 (11760151_x_at) / Fold change /veh LOC730098 (11760151_x_at) / RFU OR4N2 (11742367_at) / Fold change /veh OR4N2 (11742367_at) / RFU PRRT2 (11749266_a_at) / Fold change /veh PRRT2 (11749266_a_at) / RFU SNX32 (11753110_a_at) / Fold change /veh SNX32 (11753110_a_at) / RFU CDHR5 (11726645_a_at) / Fold change /veh CDHR5 (11726645_a_at) / RFU RCAN1 (11760418_a_at) / Fold change /veh RCAN1 (11760418_a_at) / RFU FAM167A (11723789_a_at) / Fold change /veh FAM167A (11723789_a_at) / RFU FAM26E (11764081_at) / Fold change /veh FAM26E (11764081_at) / RFU ISYNA1 (11749810_s_at) / Fold change /veh ISYNA1 (11749810_s_at) / RFU ACY1 (11761880_at) / Fold change /veh ACY1 (11761880_at) / RFU 11764098_at / Fold change /veh 11764098_at / RFU SAMD14 (11745864_x_at) / Fold change /veh SAMD14 (11745864_x_at) / RFU NPB (11741838_a_at) / Fold change /veh NPB (11741838_a_at) / RFU TMPRSS6 (11731388_a_at) / Fold change /veh TMPRSS6 (11731388_a_at) / RFU KRTAP10-2 (11738614_at) / Fold change /veh KRTAP10-2 (11738614_at) / RFU ARHGAP8 /// PRR5-ARHGAP8 (11727945_x_at) / Fold change /veh ARHGAP8 /// PRR5-ARHGAP8 (11727945_x_at) / RFU KRTAP5-7 /// NADSYN1 (11734609_at) / Fold change /veh KRTAP5-7 /// NADSYN1 (11734609_at) / RFU RASL12 (11751679_a_at) / Fold change /veh RASL12 (11751679_a_at) / RFU CDKN2B (11736163_a_at) / Fold change /veh CDKN2B (11736163_a_at) / RFU PRF1 (11729649_at) / Fold change /veh PRF1 (11729649_at) / RFU, ZNF638 /// ZNF638-IT1 / Fold change vs veh, ZNF638 /// ZNF638-IT1 / RFU, PANK3 / Fold change vs veh, PANK3 / RFU, SH3YL1 / Fold change vs veh, SH3YL1 / RFU, ZEB2 / Fold change vs veh, ZEB2 / RFU, NRIP1 / Fold change vs veh, NRIP1 / RFU, PTTG1IP / Fold change vs veh, PTTG1IP / RFU, CAPN2 / Fold change vs veh, CAPN2 / RFU, MED14 / Fold change vs veh, MED14 / RFU, SNORA58 / Fold change vs veh, SNORA58 / RFU, C1orf63 / Fold change vs veh, C1orf63 / RFU, LRRFIP1 / Fold change vs veh, LRRFIP1 / RFU, NDUFAF7 / Fold change vs veh, NDUFAF7 / RFU, SLC12A2 / Fold change vs veh, SLC12A2 / RFU, IBTK / Fold change vs veh, IBTK / RFU, ESF1 / Fold change vs veh, ESF1 / Fold change vs veh, TMEM50B / RFU, TAOK1 / Fold change vs veh, TAOK1 / RFU, ACBD3 / Fold change vs veh, ACBD3 / RFU, TMA16 / Fold change vs veh, TMA16 / RFU, RWDD3 / Fold change vs veh, RWDD3 / RFU, BCAT1 / Fold change vs veh, BCAT1 / RFU, EDEM3 / Fold change vs veh, EDEM3 / RFU, TMEM33 / Fold change vs veh, TMEM33 / RFU, WDR75 / Fold change vs veh, WDR75 / RFU, AHCTF1 / Fold change vs veh, AHCTF1 / RFU, TFRC / Fold change vs veh, TFRC / RFU, ZDHHC17 / Fold change vs veh, ZDHHC17 / RFU, NOM1 / Fold change vs veh, NOM1 / RFU, ARL8B / Fold change vs veh, ARL8B / RFU, ZBTB11 / Fold change vs veh, ZBTB11 / RFU, TAMM41 / Fold change vs veh, TAMM41 / RFU, KIAA1704 /// LOC100996395 / Fold change vs veh, KIAA1704 /// LOC100996395 / RFU, ING1 / Fold change vs veh, ING1 / RFU, TRMT61B / Fold change vs veh, TRMT61B / RFU, FUBP3 / Fold change vs veh, FUBP3 / RFU, TP53 / Fold change vs veh, TP53 / RFU, TNKS2 / Fold change vs veh, TNKS2 / RFU, ZFP14 / Fold change vs veh, ZFP14 / RFU, ACTR2 / Fold change vs veh, ACTR2 / RFU, PPP3R1 / Fold change vs veh, PPP3R1 / RFU, PIK3R1 / Fold change vs veh, PIK3R1 / RFU, HNRNPA1 / Fold change vs veh, HNRNPA1 / RFU, RNF170 / Fold change vs veh, RNF170 / RFU, ZNF28 / Fold change vs veh, ZNF28 / RFU, RNGTT / Fold change vs veh, RNGTT / RFU, OGT / Fold change vs veh, OGT / RFU, BRD1 / Fold change vs veh, BRD1 / RFU, MARS / Fold change vs veh, MARS / RFU, ZNF655 / Fold change vs veh, ZNF655 / RFU, FAHD1 / Fold change vs veh, FAHD1 / RFU, BDP1 / Fold change vs veh, BDP1 / RFU, LRRCC1 / Fold change vs veh, LRRCC1 / RFU, ARID1A / Fold change vs veh, ARID1A / RFU, ZNF146 / Fold change vs veh, ZNF146 / RFU, ZNF330 / Fold change vs veh, ZNF330 / RFU, GPN3 / Fold change vs veh, GPN3 / RFU, C9orf123 / Fold change vs veh, C9orf123 / RFU, N4BP2L2 / Fold change vs veh, N4BP2L2 / RFU, ARFIP1 / Fold change vs veh, ARFIP1 / RFU, FAM179B / Fold change vs veh, FAM179B / RFU, BCL10 / Fold change vs veh, BCL10 / RFU, UHRF1BP1L / Fold change vs veh, UHRF1BP1L / RFU, BET1 / Fold change vs veh, BET1 / RFU, CNOT2 / Fold change vs veh, CNOT2 / RFU, ZNF268 / Fold change vs veh, ZNF268 / Fold change vs veh, ZNF507 / RFU, DGCR2 / Fold change vs veh, DGCR2 / RFU, WDSUB1 / Fold change vs veh, WDSUB1 / Fold change vs veh, HSP90B1 /// MIR3652 / RFU, ADSS / Fold change vs veh, ADSS / RFU, GK / Fold change vs veh, GK / RFU, ZNF148 / Fold change vs veh, ZNF148 / RFU, TAF9 / Fold change vs veh, TAF9 / RFU, SLC1A5 / Fold change vs veh, SLC1A5 / RFU, SLMO2 / Fold change vs veh, SLMO2 / RFU, ABCC4 / Fold change vs veh, ABCC4 / RFU, LOC101060439 /// RAP1B / Fold change vs veh, LOC101060439 /// RAP1B / RFU, RFX7 / Fold change vs veh, RFX7 / RFU, GTPBP10 / Fold change vs veh, GTPBP10 / RFU, CNEP1R1 / Fold change vs veh, CNEP1R1 / RFU, BIVM-ERCC5 /// ERCC5 / Fold change vs veh, BIVM-ERCC5 /// ERCC5 / RFU, ILF3 / Fold change vs veh, ILF3 / RFU 11762660_at / Fold change /veh 11762660_at / RFU VCAN (11757783_s_at) / Fold change /veh VCAN (11757783_s_at) / RFU DDX43 (11728927_at) / Fold change /veh DDX43 (11728927_at) / RFU KRT8 (11758188_x_at) / Fold change /veh KRT8 (11758188_x_at) / RFU NKD1 (11759106_at) / Fold change /veh NKD1 (11759106_at) / RFU SRD5A1 (11742802_a_at) / Fold change /veh SRD5A1 (11742802_a_at) / RFU TPSAB1 /// TPSB2 (11721975_s_at) / Fold change /veh TPSAB1 /// TPSB2 (11721975_s_at) / RFU GSTM3 (11746129_a_at) / Fold change /veh GSTM3 (11746129_a_at) / RFU IL23R (11737362_x_at) / Fold change /veh IL23R (11737362_x_at) / RFU TMEM51 (11727254_a_at) / Fold change /veh TMEM51 (11727254_a_at) / RFU PIWIL2 (11732686_x_at) / Fold change /veh PIWIL2 (11732686_x_at) / RFU ORM1 (11744905_x_at) / Fold change /veh ORM1 (11744905_x_at) / RFU CCDC152 (11743942_at) / Fold change /veh CCDC152 (11743942_at) / RFU ECM1 (11717891_a_at) / Fold change /veh ECM1 (11717891_a_at) / RFU IL23R (11748794_a_at) / Fold change /veh IL23R (11748794_a_at) / RFU TNFAIP8L3 (11732012_x_at) / Fold change /veh TNFAIP8L3 (11732012_x_at) / RFU MBOAT4 (11741988_at) / Fold change /veh MBOAT4 (11741988_at) / RFU 11764193_at / Fold change /veh 11764193_at / RFU TMEM53 (11763286_at) / Fold change /veh TMEM53 (11763286_at) / RFU MAGEB2 (11727129_at) / Fold change /veh MAGEB2 (11727129_at) / RFU TMEM200A (11744735_a_at) / Fold change /veh TMEM200A (11744735_a_at) / RFU CCDC152 (11751479_a_at) / Fold change /veh CCDC152 (11751479_a_at) / RFU FAM211A (11726209_a_at) / Fold change /veh FAM211A (11726209_a_at) / RFU RGS16 (11746705_a_at) / Fold change /veh RGS16 (11746705_a_at) / RFU VCAN (11755009_s_at) / Fold change /veh VCAN (11755009_s_at) / RFU RHOB (11743442_s_at) / Fold change /veh RHOB (11743442_s_at) / RFU RGS16 (11720943_a_at) / Fold change /veh RGS16 (11720943_a_at) / RFU RGS16 (11720944_at) / Fold change /veh RGS16 (11720944_at) / RFU, VPS4B / Fold change vs veh, VPS4B / RFU, CREB1 / Fold change vs veh, CREB1 / RFU, DNAJC13 / Fold change vs veh, DNAJC13 / RFU, GNAQ / Fold change vs veh, GNAQ / RFU, CDK5R1 / Fold change vs veh, CDK5R1 / RFU, ZRANB3 / Fold change vs veh, ZRANB3 / RFU, CUL4A / Fold change vs veh, CUL4A / RFU, CCNY / Fold change vs veh, CCNY / RFU, UFL1 / Fold change vs veh, UFL1 / RFU, COG3 / Fold change vs veh, COG3 / RFU, DIAPH2 / Fold change vs veh, DIAPH2 / RFU, SKA2 / Fold change vs veh, SKA2 / RFU, AFF3 / Fold change vs veh, AFF3 / RFU, LMF1 / Fold change vs veh, LMF1 / RFU, IPO11 / Fold change vs veh, IPO11 / RFU, DFFB / Fold change vs veh, DFFB / RFU, FOXP1 / Fold change vs veh, FOXP1 / RFU, CARD8 / Fold change vs veh, CARD8 / RFU, STRN3 / Fold change vs veh, STRN3 / RFU, ADK / Fold change vs veh, ADK / RFU, RASSF2 / Fold change vs veh, RASSF2 / RFU, WIPF1 / Fold change vs veh, WIPF1 / RFU, LARP1B / Fold change vs veh, LARP1B / RFU, RASA1 / Fold change vs veh, RASA1 / RFU, RB1 / Fold change vs veh, RB1 / RFU, PPFIA1 / Fold change vs veh, PPFIA1 / RFU, MAT2A / Fold change vs veh, MAT2A / RFU, CCT5 / Fold change vs veh, CCT5 / RFU, WDR92 / Fold change vs veh, WDR92 / RFU, CUX1 / Fold change vs veh, CUX1 / RFU, TTC7A / Fold change vs veh, TTC7A / RFU, TMEM135 / Fold change vs veh, TMEM135 / RFU, DEPTOR / Fold change vs veh, DEPTOR / RFU, CPM / Fold change vs veh, CPM / RFU, DNAJB6 / Fold change vs veh, DNAJB6 / RFU, CACNA2D3 / Fold change vs veh, CACNA2D3 / RFU, DTX4 / Fold change vs veh, DTX4 / RFU, TFCP2 / Fold change vs veh, TFCP2 / RFU, GMCL1 /// GMCL1P1 / Fold change vs veh, GMCL1 /// GMCL1P1 / RFU, AEBP2 / Fold change vs veh, AEBP2 / RFU, SNHG1 /// SNORD22 /// SNORD25 /// SNORD26 /// SNORD27 /// SNORD28 /// SNORD29 /// SNORD31 / Fold change vs veh, SNHG1 /// SNORD22 /// SNORD25 /// SNORD26 /// SNORD27 /// SNORD28 /// SNORD29 /// SNORD31 / Fold change (Aza/veh), C12orf56 (ProbeSet 11735607_a_at) / Fold change (ACY-1035/veh), C12orf56 (ProbeSet 11735607_a_at) / Fold change (Aza/veh), FGFR1OP (ProbeSet 11751329_s_at) / Fold change (ACY-1035/veh), FGFR1OP (ProbeSet 11751329_s_at) / Fold change (Aza/veh), VPS36 (ProbeSet 11739960_a_at) / Fold change (ACY-1035/veh), VPS36 (ProbeSet 11739960_a_at) / RFU SYPL1 (11715823_x_at) / Fold change /veh SYPL1 (11715823_x_at) / RFU IGFBP7 (11715501_s_at) / Fold change /veh IGFBP7 (11715501_s_at) / RFU REEP3 (11722064_at) / Fold change /veh REEP3 (11722064_at) / RFU IGLL1 (11728026_x_at) / Fold change /veh IGLL1 (11728026_x_at): dose or concentration left out as unconfirmed
Settings: MV-4-11 cells, 48 hours

Compound: Nc1ccc(-c2cccs2)cc1NC(=O)c1ccc2c(c1)cc(C1CC1)n2CCN1CCOCC1 [ACY-1035]
- Fold change /veh PRF1 (11729649_at): 1.05
